Structures can show the parent of a compound that is named as a salt.

T1 sequence (Q02763 762-1104): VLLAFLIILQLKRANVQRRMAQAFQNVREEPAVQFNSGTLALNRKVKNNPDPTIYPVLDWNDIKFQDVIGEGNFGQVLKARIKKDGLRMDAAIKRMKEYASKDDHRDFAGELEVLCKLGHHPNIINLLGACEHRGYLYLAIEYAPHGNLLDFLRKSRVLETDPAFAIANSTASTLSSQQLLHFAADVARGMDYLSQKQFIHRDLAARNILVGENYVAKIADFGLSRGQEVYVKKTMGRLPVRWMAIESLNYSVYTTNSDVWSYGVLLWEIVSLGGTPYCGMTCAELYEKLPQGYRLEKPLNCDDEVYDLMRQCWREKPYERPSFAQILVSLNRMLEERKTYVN
GSK-3β, sequence (P49841 whole entry, species assumed): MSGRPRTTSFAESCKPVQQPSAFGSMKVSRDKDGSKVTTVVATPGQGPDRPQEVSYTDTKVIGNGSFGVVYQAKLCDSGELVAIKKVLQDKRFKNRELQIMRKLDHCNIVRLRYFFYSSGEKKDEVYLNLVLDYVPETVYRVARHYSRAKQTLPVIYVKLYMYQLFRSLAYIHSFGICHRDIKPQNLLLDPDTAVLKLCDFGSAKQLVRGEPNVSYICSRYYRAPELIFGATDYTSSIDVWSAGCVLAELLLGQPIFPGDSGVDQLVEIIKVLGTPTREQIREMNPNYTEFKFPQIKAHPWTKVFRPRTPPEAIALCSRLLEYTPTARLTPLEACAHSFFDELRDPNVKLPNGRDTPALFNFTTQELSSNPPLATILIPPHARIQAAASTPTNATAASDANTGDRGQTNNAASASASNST

The first assay concerns the target GSK-3β (Homo sapiens, UniProt P49841). Put plainly: GSK3 scintillation proximity assay (SPA) kinase assay. Type of assay: biochemical. Particulars: 20 nM kinase, 2.5 uM ATP, biotinylated glycogen synthase peptide, 40 minutes at room temperature; -log IC50 in Molar; read-out: GSK-3 pIC50 (converted). An excerpt: The phosphorylated biotinylated peptide is then captured onto streptavidin coated scintillation proximity assay (SPA) beads from Amersham Technology, where the signal from the ^33P is amplified via the scintillant contained in the beads.
GSK-3β is commercially available or may be cloned and expressed in E. coli using standard techniques to produce soluble, active protein. The production of active protein involves purification in two steps using Metal Chelate and Ion Exchange Chromatography. Protein eluting from Ion Exchange provides >90% pure product that may then be concentrated for use in high throughput screening.
The kinase was assayed at a concentration of 20 nM final in 100 mM HEPES, pH 7.2 containing 10 mM magnesium chloride, 0.1 mg/mL bovine serum albumin, 1 mM dithiothreitol, 0.3 mg/mL heparin, 2.8 uM peptide substrate, 2.5 uM ATP, and 0.2 uCi/well [[…]-^33P]-ATP. After 40 minutes incubation at room temperature, the reaction was stopped by addition of 100 mM EDTA and […] in 100 mM HEPES, pH7.2 followed by an additional solution of diluted Streptavidin coated SPA beads in PBS, pH 7.2 to give a final concentration of 0.25 mg of beads per assay well in a 96-well microtiter plate.
10 mM stock solutions of the compounds of the invention in 100% DMSO are generated as a first step in the screening process. The second step involves the creation of dose response plates where these compounds are diluted 10-fold in 100% DMSO to 1 mM concentrations and subsequently serially diluted 3-fold in 100% DMSO across the plate by automated liquid handling such that the final top concentration of inhibitor is 0.033 mM in the 30 uL kinase assay. The third step involves the creation of the assay plates. This is achieved by transferring 1 uL of the compounds to assay plates by automated liquid handling. The fourth step is to perform the assay as described and count the resulting plates in the Packard TopCount NXT microplate scintillation and luminescence counter.
The final step is data acquisition and analysis where IC50 values are generated for each compound by normalizing curve data to the equation 100*(U1−C2)/(C1−C2) (where U1 is the cpm value, C2 is the background, and C1 is the maximum number of counts), then fitting the normalized data to the equation y=Vmax*(1−(x/(K+x))). The IC50 values were converted to pIC50 values, i.e., −log IC50 in Molar concentration. The data is expressed below in Table 1.
For orientation: SPA uses beads or plates that emit light when radiolabelled molecules are held near them.
For the compound `C(=N\Nc1ncnc2c1cnn2-c1ccccc1)/c1ccncc1` [Example 1, Isonicotinaldehyde (1-phenyl-1H-pyrazolo[3,4-d]pyrimidin-4-yl)hydrazone], the IC50 was 100 to 1000 nM.

Consider `C(=NNc1ncnc2c1cnn2-c1ccccc1)c1cccnc1` [Example 2, Nicotinaldehyde (1-phenyl-1H-pyrazolo[3,4-d]pyrimidin-4-yl)hydrazone], for which the IC50 is under 100 nM.

As for `COC(=O)c1cccc(/C=N/Nc2ncnc3c2cnn3-c2ccccc2)c1` [Example 3, Methyl 3-{(E)-[(1-phenyl-1H-pyrazolo[3,4-d]pyrimidin-4-yl)hydrazono]methyl}benzoate], the IC50 is 100 to 1000 nM.

Take `C(=N\Nc1ncnc2c1cnn2-c1ccccc1)/c1cnc2ccccc2c1` [Example 4, Quinoline-3-carbaldehyde (1-phenyl-1H-pyrazolo[3,4-d]pyrimidin-4-yl)hydrazone]: the IC50 was 100 to 1000 nM. The same measure, in the same setting: to `OCCOc1cccc(/C=N/Nc2ncnc3c2cnn3-c2ccccc2)c1` [Example 5, 3-(2-Hydroxyethoxy)benzaldehyde (1-phenyl-1H-pyrazolo[3,4-d]pyrimidin-4-yl)hydrazone] belongs under 100 nM; to `CC(C)(C)OC(=O)N1CCC(/C=N/Nc2ncnc3c2cnn3-c2ccccc2)CC1` [Example 8, tert-butyl 4-{(E)-[(1-phenyl-1H-pyrazolo[3,4-d]pyrimidin-4-yl)hydrazono]methyl}piperidine-1-carboxylate], 100 to 1000 nM. In the case of `C(=N\Nc1ncnc2c1cnn2-c1ccccc1)/C1CCNCC1` [Example 9, Piperidine-4-carbaldehyde (1-phenyl-1H-pyrazolo[3,4-d]pyrimidin-4-yl)hydrazone trifluoroacetate], the IC50 was 100 to 1000 nM. In the case of `CC(=O)Nc1ccc(/C=N/Nc2ncnc3c2cnn3-c2ccccc2)cn1` [Example 10, N-(5-{(E)-[2-(1-phenyl-1H-pyrazolo[3,4-d]pyrimidin-4-yl)hydrazono]methyl}pyridin-2-yl)acetamide], the IC50 was under 100 nM.

On to `Nc1ccc(/C=N/Nc2ncnc3c2cnn3-c2ccccc2)cn1` [Example 12, 6-aminonicotinaldehyde (1-phenyl-1H-pyrazolo[3,4-d]pyrimidin-4-yl)hydrazone trifluoroacetate], for which the IC50 was 100 to 1000 nM. Still for that read-out and setting: to `CN(C)c1ccc(/C=N/Nc2ncnc3c2cnn3-c2ccccc2)cn1` [Example 13, 6-(dimethylamino)nicotinaldehyde (1-phenyl-1H-pyrazolo[3,4-d]pyrimidin-4-yl)hydrazone] belongs 1000 to 10000 nM; to `Clc1cc(/C=N/Nc2ncnc3c2cnn3-c2ccccc2)ccn1` [Example 14, 2-chloroisonicotinaldehyde (1-phenyl-1H-pyrazolo[3,4-d]pyrimidin-4-yl)hydrazone], 100 to 1000 nM.

Regarding `COc1cc(/C=N/Nc2ncnc3c2cnn3-c2ccccc2)ccn1` [Example 15, 2-methoxyisonicotinaldehyde (1-phenyl-1H-pyrazolo[3,4-d]pyrimidin-4-yl)hydrazone], the IC50 was 100 to 1000 nM. On the same count and under the same terms, to `Clc1ccc(/C=N/Nc2ncnc3c2cnn3-c2ccccc2)cn1` [Example 16, 6-chloronicotinaldehyde (1-phenyl-1H-pyrazolo[3,4-d]pyrimidin-4-yl)hydrazone] belongs under 100 nM; to `COc1ccc(/C=N/Nc2ncnc3c2cnn3-c2ccccc2)cn1` [Example 17, 6-methoxynicotinaldehyde (1-phenyl-1H-pyrazolo[3,4-d]pyrimidin-4-yl)hydrazone], 100 to 1000 nM; to `CN(C)CCOc1ccc(/C=N/Nc2ncnc3c2cnn3-c2ccccc2)cn1` [Example 18, 6-[2-(dimethylamino)ethoxy]nicotinaldehyde (1-phenyl-1H-pyrazolo[3,4-d]pyrimidin-4-yl)hydrazone], 100 to 1000 nM. The same measure, in the same setting: to `CN(C)CCNc1ccc(/C=N/Nc2ncnc3c2cnn3-c2ccccc2)cn1` [Example 19, 6-{[2-(dimethylamino)ethyl]amino}nicotinaldehyde (1-phenyl-1H-pyrazolo[3,4-d]pyrimidin-4-yl)hydrazone hydrochloride] belongs under 100 nM; to `O=S(=O)(NCCN1CCOCC1)c1ccc(/C=N/Nc2ncnc3c2cnn3-c2ccccc2)cc1` [Example 21, N-(2-morpholin-4-ylethyl)-4-{(E)-[(1-phenyl-1H-pyrazolo[3,4-d]pyrimidin-4-yl)hydrazono]methyl}benzenesulfonamide], under 100 nM; to `CN(C)CCNS(=O)(=O)c1ccc(/C=N/Nc2ncnc3c2cnn3-c2ccccc2)cc1` [Example 22, N[2-(dimethylamino)ethyl]-4-[{(E)[(1-phenyl-1H-pyrazolo[3,4-d]pyrimidin-4-yl)hydrazono]methyl}benzenesulfonamide hydrochloride], under 100 nM.

As to `O=S(=O)(NCCCN1CCCC1)c1ccc(/C=N/Nc2ncnc3c2cnn3-c2ccccc2)cc1` [Example 23, 4-{(E)-[(1-phenyl-1H-pyrazolo[3,4-d]pyrimidin-4-yl)hydrazono]methyl}-N-(3-pyrrolidin-1-ylpropyl)benzenesulfonamide], the IC50 was under 100 nM.

In the case of `O=C(NCc1ccccn1)c1ccc(/C=N/Nc2ncnc3c2cnn3-c2ccccc2)cc1` [Example 28, 4-{(E)-[(1-phenyl-1H-pyrazolo[3,4-d]pyrimidin-4-yl)hydrazono]methyl}-N-(pyridin-2-ylmethyl)benzamide], the IC50 is 100 to 1000 nM. On the same count and under the same terms, the result for `CN(C)CCNC(=O)c1cccc(/C=N/Nc2ncnc3c2cnn3-c2ccccc2)c1` [Example 40, N-[2-(dimethylamino)ethyl]-3-{(E)-[(1-phenyl-1H-pyrazolo[3,4-d]pyrimidin-4-yl)hydrazono]methyl}benzamide] reads under 100 nM. As to `CS(=O)(=O)CCNC(=O)c1cccc(/C=N/Nc2ncnc3c2cnn3-c2ccccc2)c1` [Example 41], the IC50 is 100 to 1000 nM.

With `O=C(NCCN1CCOCC1)c1cccc(/C=N/Nc2ncnc3c2cnn3-c2ccccc2)c1` [Example 42, N-(2-morpholin-4-ylethyl)-3-{(E)-[(1-phenyl-1H-pyrazolo[3,4-d]pyrimidin-4-yl)hydrazono]methyl}benzamide], the IC50 is 100 to 1000 nM. For `CCc1ccc(/C=N/Nc2ncnc3c2cnn3-c2ccccc2)o1` [Example 57, 5-Ethyl-2-furaldehyde [1-(phenyl)-1H-pyrazolo[3,4-d]pyrimidin-4-yl]hydrazone], the IC50 was 1000 to 10000 nM. The same measure, in the same setting: the result for `Cc1ccc(/C=N/Nc2ncnc3c2cnn3-c2ccccc2)o1` [Example 59, 5-Methyl-2-furaldehyde [1-(phenyl)-1H-pyrazolo[3,4-d]pyrimidin-4-yl]hydrazone] reads 100 to 1000 nM; that for `C(=N\Nc1ncnc2c1cnn2-c1ccccc1)/c1ccnc2ccccc12` [Example 62, 4-Quinolinecarboxaldehyde [1-(phenyl)-1H-pyrazolo[3,4-d]pyrimidin-4-yl]hydrazone], 1000 to 10000 nM.

A further assay concerns the target T1, GST-TIE2 (intracellular domains of human TIE2) (Homo sapiens, UniProt Q02763).
T1 construct: made in house
Nature of the assay: TIE-2 Enzyme Assay (TIE2-E), LANCE method. Particulars: preactivated GST-TIE2, 1 μM D1-15 peptide, 80 uM ATP, 30 mins at room temperature; pIC50 = -log IC50 in Molar. The assay is classed as biochemical. The text has this:
The TIE-2 enzyme assay used the LANCE method (Wallac) and GST-TIE2, baculovirus expressed recombinant constructs of the intracellular domains of human TIE2 (amino acids 762-1104, GenBank Accession # L06139) tagged by GST). The method measured the ability of the purified enzymes to catalyse the transfer of the γ-phosphate from ATP onto tyrosine residues in a biotinylated synthetic peptide, D1-15 (biotin-C6-LEARLVAYEGWVAGKKKamide). This peptide phosphorylation was detected using the following procedure: for enzyme preactivation, GST-TIE2 was incubated for 30 mins at room temperature with 2 mM ATP, 5 mM MgCl2 and 12.5 mM DTT in 22.5 mM HEPES buffer (pH7.4). Preactivated GST-TIE2 was incubated for 30 mins at room temperature in 96 well plates with 1 μM D1-15 peptide, 80 uM ATP, 10 mM MgCl2, 0.1 mg/ml BSA and the test compound (diluted from a 10 mM stock in DMSO, final DMSO concentration was 2.4%) in 1 mM HEPES (pH7.4). The reaction was stopped by the addition of EDTA (final concentration 45 mM). Streptavidin linked-APC (allophycocyanin, Molecular Probe) and Europium-labeled anti-phosphorylated tyrosine antibody (Wallac) were then added at the final concentration of 17 μg/well and 2.1 μg/well, respectively. The APC signal was measured using an ARVO multilabel counter. (Wallac Berthold Japan). The percent inhibition of activity was calculated relative to blank control wells.
The concentration of test compound that inhibits 50% of activity (IC50) was interpolated using nonlinear regression (Levernberg-Marquardt) and the equation, y=Vmax (1−x/(K+x))+Y2, where “K” was equal to the IC50. The IC50 values were converted to pIC50 values, i.e., −log IC50 in Molar concentration.
Test compounds are employed in free or salt form.
(Time-resolved FRET reads energy transfer from a long-lived donor to a nearby acceptor.)
As to `C(=N\Nc1ncnc2c1cnn2-c1ccccc1)/c1ccncc1` [Example 1, Isonicotinaldehyde (1-phenyl-1H-pyrazolo[3,4-d]pyrimidin-4-yl)hydrazone], the IC50 was in the range of 100 to 1000 nM.

The compound `C(=NNc1ncnc2c1cnn2-c1ccccc1)c1cccnc1` [Example 2, Nicotinaldehyde (1-phenyl-1H-pyrazolo[3,4-d]pyrimidin-4-yl)hydrazone] registered an IC50 of 1000 to 10000 nM.

As for `OCCOc1cccc(/C=N/Nc2ncnc3c2cnn3-c2ccccc2)c1` [Example 5, 3-(2-Hydroxyethoxy)benzaldehyde (1-phenyl-1H-pyrazolo[3,4-d]pyrimidin-4-yl)hydrazone], the IC50 was 100 to 1000 nM.
